± gives the expanded uncertainty stated by the source.
Legend:
[1] = 101.33 kPa, Liquid, Vibrating tube method
[2] = refractive index (Na D-line) (dimensionless); details: 293.15 K; 101.33 kPa; Liquid; Standard Abbe refractometry
[3] = Boiling temperature at pressure P; details: Liquid, Closed cell (Static) method

CCCCO [butan-1-ol]
Details | mass density [kg/m3]
[1], 298.15 K | 805.851 ± 0.16

Details | refractive index
[2] | 1.39705 ± 0.0007

C1CCCCC1 [cyclohexane]
Details | mass density [kg/m3]
[1], 293.15 K | 778.414 ± 0.61

Details | refractive index
[2] | 1.42655 ± 0.0008

CC(C)OC(C)C [diisopropyl ether]
Details | mass density [kg/m3]
[1], 298.15 K | 718.511 ± 0.25

Details | refractive index
[2] | 1.36547 ± 0.00072

CCO [ethanol]
Details | Boiling temperature at pressure P [°C] | mass density [kg/m3]
[1], 298.15 K | – | 784.89 ± 0.16
[3], 17.99 kPa | 40.00 ± 0.51 | –
[3], 20 kPa | 42.23 ± 0.51 | –
[3], 29.6 kPa | 50.00 ± 0.45 | –
[3], 40 kPa | 56.49 ± 0.43 | –
[3], 47.01 kPa | 60.00 ± 0.43 | –
[3], 49.99 kPa | 61.37 ± 0.42 | –
[3], 59.93 kPa | 65.51 ± 0.42 | –
[3], 69.95 kPa | 69.13 ± 0.41 | –
[3], 79.91 kPa | 72.33 ± 0.41 | –
[3], 89.92 kPa | 75.16 ± 0.41 | –
[3], 100.07 kPa | 77.90 ± 0.41 | –

Details | refractive index
[2] | 1.35929 ± 0.0007

CO [methanol]
Details | Boiling temperature at pressure P [°C] | mass density [kg/m3]
[1], 298.15 K | – | 786.624 ± 0.16
[3], 19.97 kPa | 28.22 ± 0.48 | –
[3], 24.04 kPa | 32.00 ± 0.46 | –
[3], 29.98 kPa | 36.41 ± 0.44 | –
[3], 39.04 kPa | 42.00 ± 0.43 | –
[3], 50.01 kPa | 47.57 ± 0.42 | –
[3], 60.94 kPa | 52.00 ± 0.42 | –
[3], 69.96 kPa | 55.42 ± 0.41 | –
[3], 79.92 kPa | 58.59 ± 0.41 | –
[3], 89.99 kPa | 61.58 ± 0.41 | –
[3], 100 kPa | 64.18 ± 0.41 | –

Details | refractive index
[2] | 1.32643 ± 0.0007
